Molecules are shown by their SMILES.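 A five-concentration, 48-hour dose response in 96-well plates underlies each endpoint, interpolated linearly between surrounding concentrations. GI50 is the concentration that inhibits growth by half.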 The source made the active and inactive calls. Cut-off read from the data, not from the text of the source: active = GI50 up to about 1.1 µM and inactive = higher.

Assay in all cases: NCI tumour cell line growth inhibition, 48 h
The test system of test [1] is MDA-MB-231.
The subject of test [2] is CAKI-1.
Test [3] relates to M14.
For test [4], the system named is HCT-15.
The subject of test [5] is NCI-H226.
Test [6] relates to HOP-62.
Test [7] has as its system Malme-3M.
Test [8] has as its system SR.
For test [9], the system named is OVCAR-3.
Test [10] relates to OVCAR-4.
The test system of test [11] is MDA-N.
The subject of test [12] is KM12.
Test [13] concerns PC-3.
In test [14] the test system is ACHN.
Test [15] deals with SK-MEL-28.
Test [16] concerns SW-620.
For test [17], the system named is NCI-H522.
Test [18] concerns HOP-92.
Test [19] has as its system IGROV-1.
Test [20] has as its system SF-539.

As to `CNC(=S)/C(=N\Nc1[nH]cnc1C(N)=O)C(N)=S`, the GI50 is 2.12 µM (inactive) in [1]; 1.71 µM (inactive) in test [2]; 1.1 µM (active) in test [3]; 15.1 µM in [4]; 5.73 µM (inactive) in test [5]; 19.2 µM (inactive) in test [6]. For the same compound, the GI50 in [7] was 1.1 µM (active); in test [8], < 0.01 µM (active); in [9], 6.43 µM (inactive); in [10], 4.17 µM (inactive); in [11], 4.34 µM (inactive); in [12] it was 4.09 µM (inactive). Further, the GI50 in test [13] is 5.52 µM (inactive); in test [14] it was 5.32 µM (inactive); in [15] it was 69.7 µM (inactive); in test [16], 3.78 µM (inactive); in [17], 10.9 µM (inactive); in test [18], 3 µM (inactive). The values for the GI50 in test [19] and in test [20] were 3.56 µM (inactive) and 5.21 µM (inactive), respectively.
Take `CN(C)Cc1cc(/N=N/c2ccc(Cl)c(Cl)c2)ccc1O`: the GI50 in [1] is 5.15 µM (inactive); in test [2], 12.6 µM (inactive); in [3], 16 µM (inactive); in [4], 6.5 µM; in [5], 17.9 µM (inactive); in test [6], 2.72 µM (inactive). Further, the GI50 is 15.6 µM (inactive) in test [7]; 7.45 µM (inactive) in test [8]; 6.34 µM (inactive) in [9]; 7.28 µM (inactive) in [10]; 11.4 µM (inactive) in test [11]; 4.35 µM (inactive) in test [12]. Also, the GI50 in [13] was 11.6 µM (inactive); in test [14] it was 4.44 µM (inactive); in test [15] it was 13.7 µM (inactive); in [16] it was 11.1 µM (inactive); in [17] it was 5.41 µM (inactive); in test [18] it was 3.3 µM (inactive). For the same compound, the values for the GI50 in test [19] and in [20] were 3.4 µM (inactive) and 18.5 µM (inactive), respectively.
As to `CCOC(=O)NC(Nc1ccc(S(=O)(=O)Nc2ncccn2)cc1)(C(=O)OCC)C(F)(F)F` (stereo not given), the GI50 in test [1] is > 100 µM (inactive); in [2] it was > 100 µM (inactive); in [3], > 100 µM (inactive); in test [4], above 100 µM; in test [5], > 100 µM (inactive); in test [6], > 100 µM (inactive). The GI50 in test [7], in [8], in test [9], in test [10], in [11] and in test [12] was > 100 µM (inactive) in each case. Further, the GI50 in [13], in [14], in test [15], in test [16], in test [17] and in test [18] was > 100 µM (inactive) in each case. Further, the GI50 in test [19] and in test [20] was > 100 µM (inactive) in each case.
